Experimental data as given in the CheMixHub viscosity set.

Assay: xn = mol fraction of the nth substance listed

CCCCN(CCCC)CCCC + CCCCCCCC
viscosity [mPa·s], 101 kPa
Conditions | x1 = 0.0983 | x1 = 0.1934 | x1 = 0.395 | x1 = 0.4909 | x1 = 0.5915 | x1 = 0.7854 | x1 = 0.897
303.15 K | 0.532 | 0.5833 | 0.7038 | 0.7674 | 0.838 | 0.9861 | 1.079
313.15 K | 0.4675 | 0.5129 | 0.6183 | 0.6727 | 0.734 | 0.8553 | 0.9291

CC(C)(C)Br + CC(C)(C)O
viscosity [mPa·s], 101.3 kPa
Conditions | x1 = 0.1003 | x1 = 0.2034 | x1 = 0.3015 | x1 = 0.4024 | x1 = 0.5028 | x1 = 0.6049 | x1 = 0.705 | x1 = 0.7981 | x1 = 0.8958
298.15 K | 2.648 | 1.858 | 1.458 | 1.208 | 1.026 | 0.9136 | 0.8363 | 0.7868 | 0.7483
313.15 K | 1.504 | 1.165 | 0.9832 | 0.8491 | 0.7568 | 0.6855 | 0.6408 | 0.6119 | 0.595

CN(C)c1ccccc1 + CC(=O)c1ccccc1
viscosity [mPa·s], 101 kPa
Conditions | 303.15 K | 308.15 K
x1 = 0.0856 | 1.505 | 1.398
x1 = 0.1502 | 1.495 | 1.387
x1 = 0.2141 | 1.48 | 1.376
x1 = 0.2852 | 1.461 | 1.361
x1 = 0.3521 | 1.442 | 1.346
x1 = 0.4201 | 1.42 | 1.328
x1 = 0.5026 | 1.392 | 1.305
x1 = 0.5892 | 1.362 | 1.279
x1 = 0.6625 | 1.335 | 1.254
x1 = 0.7211 | 1.313 | 1.234
x1 = 0.7908 | 1.284 | 1.207
x1 = 0.8625 | 1.253 | 1.177
x1 = 0.9204 | 1.222 | 1.151

CCCCN(CCCC)CCCC + CCC(C)O
303.15 K, 101 kPa
Conditions | viscosity [mPa·s]
x1 = 0.01127 | 2.456
x1 = 0.0218 | 2.439
x1 = 0.03265 | 2.423
x1 = 0.04214 | 2.409
x1 = 0.04957 | 2.399
x1 = 0.05793 | 2.387
x1 = 0.06851 | 2.372
x1 = 0.07785 | 2.359
x1 = 0.08821 | 2.345

C=CC#N + CCCCO
viscosity [mPa·s], 101.33 kPa
Conditions | x1 = 0.1054 | x1 = 0.2059 | x1 = 0.305 | x1 = 0.4063 | x1 = 0.5073 | x1 = 0.6039 | x1 = 0.6962 | x1 = 0.8074 | x1 = 0.9006
298.15 K | 1.797 | 1.363 | 1.065 | 0.849 | 0.69 | 0.581 | 0.499 | 0.429 | 0.386
303.15 K | 1.596 | 1.221 | 0.965 | 0.776 | 0.637 | 0.539 | 0.468 | 0.407 | 0.369
308.15 K | 1.424 | 1.102 | 0.881 | 0.714 | 0.594 | 0.505 | 0.442 | 0.385 | 0.352

CCCCOC(=O)c1ccccc1C(=O)OCCCC + Oc1cccc(O)c1
Conditions | viscosity [mPa·s]
293.15 K, 101 kPa, x2 = 0.35 | 69.1

CCC(C)(C)O + COC(C)=O
298.15 K, 101.33 kPa
Conditions | viscosity [mPa·s]
x2 = 0.1632 | 1.792
x2 = 0.2443 | 1.33
x2 = 0.35 | 0.96
x2 = 0.448 | 0.787
x2 = 0.5246 | 0.677
x2 = 0.6222 | 0.57
x2 = 0.7221 | 0.496
x2 = 0.8153 | 0.434
x2 = 0.9107 | 0.395

CC(C)(C)Cl + C1CCOC1
101 kPa
Conditions | viscosity [mPa·s]
298.15 K, x2 = 0.0634 | 0.4743
298.15 K, x2 = 0.1288 | 0.4733
298.15 K, x2 = 0.2423 | 0.4718
298.15 K, x2 = 0.3198 | 0.4705
298.15 K, x2 = 0.4555 | 0.4684
298.15 K, x2 = 0.5341 | 0.4673
298.15 K, x2 = 0.6598 | 0.4656
298.15 K, x2 = 0.7441 | 0.4647
298.15 K, x2 = 0.8407 | 0.4639
298.15 K, x2 = 0.8916 | 0.4636
298.15 K, x2 = 0.961 | 0.4633
313.15 K, x2 = 0.0557 | 0.3913
313.15 K, x2 = 0.0959 | 0.3917
313.15 K, x2 = 0.1963 | 0.3928
313.15 K, x2 = 0.296 | 0.3935
313.15 K, x2 = 0.3892 | 0.394
313.15 K, x2 = 0.521 | 0.3945
313.15 K, x2 = 0.5951 | 0.3946
313.15 K, x2 = 0.6368 | 0.3947
313.15 K, x2 = 0.8089 | 0.3951
313.15 K, x2 = 0.9009 | 0.3959
313.15 K, x2 = 0.9526 | 0.3968

CCCCN(CCCC)CCCC + CCCCO
viscosity [mPa·s]
Conditions | 303.15 K | 313.15 K
101 kPa, x1 = 0.007767 | 2.245 | –
101 kPa, x1 = 0.01457 | 2.236 | –
101 kPa, x1 = 0.02285 | 2.226 | –
101 kPa, x1 = 0.03362 | 2.211 | –
101 kPa, x1 = 0.04436 | 2.197 | –
101 kPa, x1 = 0.04946 | 2.191 | –
101 kPa, x1 = 0.05954 | 2.178 | –
101 kPa, x1 = 0.07271 | 2.16 | –
101 kPa, x1 = 0.08924 | 2.138 | –
101.3 kPa, x1 = 0.0942 | 2.159 | 1.71
101.3 kPa, x1 = 0.1897 | 2.028 | 1.608
101.3 kPa, x1 = 0.3149 | 1.877 | 1.481
101.3 kPa, x1 = 0.4192 | 1.766 | 1.393
101.3 kPa, x1 = 0.5187 | 1.65 | 1.311
101.3 kPa, x1 = 0.618 | 1.542 | 1.231
101.3 kPa, x1 = 0.7149 | 1.448 | 1.154
101.3 kPa, x1 = 0.8007 | 1.365 | 1.102
101.3 kPa, x1 = 0.9031 | 1.256 | 1.047

CN(C)c1ccccc1 + COc1ccccc1
viscosity [mPa·s], 101 kPa
Conditions | x1 = 0.1072 | x1 = 0.2092 | x1 = 0.3052 | x1 = 0.406 | x1 = 0.5082 | x1 = 0.6053 | x1 = 0.6916 | x1 = 0.7895 | x1 = 0.8939
293.15 K | 1.123 | 1.171 | 1.21 | 1.247 | 1.281 | 1.309 | 1.331 | 1.349 | 1.359
298.15 K | 1.039 | 1.083 | 1.124 | 1.159 | 1.191 | 1.22 | 1.241 | 1.255 | 1.27
303.15 K | 0.957 | 0.994 | 1.032 | 1.064 | 1.092 | 1.116 | 1.135 | 1.142 | 1.158
308.15 K | 0.887 | 0.917 | 0.949 | 0.98 | 1.004 | 1.025 | 1.036 | 1.042 | 1.056
313.15 K | 0.811 | 0.838 | 0.866 | 0.897 | 0.92 | 0.936 | 0.947 | 0.955 | 0.969
318.15 K | 0.767 | 0.791 | 0.815 | 0.845 | 0.869 | 0.883 | 0.889 | 0.898 | 0.911
323.15 K | 0.709 | 0.728 | 0.751 | 0.778 | 0.8 | 0.811 | 0.814 | 0.823 | 0.836
